Here are results for five compounds from ChEMBL document CHEMBL1134787, “Synthesis and biological studies of novel nucleoside phosphoramidate prodrugs” (J Med Chem, 2001).

Assay [1] relates to L1210. In words: Growth inhibition in L1210 mouse leukemia cells after 2 hr treatment. The assay is classed as functional, cell-based. The settings on record: L1210, 2 h.
For assay [2], the system named is L1210. In words: Growth inhibition in L1210 mouse leukemia cells after 24 h treatment. It counts as functional, cell-based. To be noted: L1210, 24 h.
Assay [3] relates to L1210. In words: Growth inhibition in L1210 mouse leukemia cells after 48 hr treatment. The assay is classed as functional, cell-based. The settings on record: L1210, 48 h.
The target of assay [4] is T1, Thymidylate synthase (Mus musculus, UniProt P07607). In words: Thymidylate synthase inhibition in L1210 mouse leukemia cells after 2 hr treatment. It counts as cell-based.
T1 sequence (P07607 whole entry): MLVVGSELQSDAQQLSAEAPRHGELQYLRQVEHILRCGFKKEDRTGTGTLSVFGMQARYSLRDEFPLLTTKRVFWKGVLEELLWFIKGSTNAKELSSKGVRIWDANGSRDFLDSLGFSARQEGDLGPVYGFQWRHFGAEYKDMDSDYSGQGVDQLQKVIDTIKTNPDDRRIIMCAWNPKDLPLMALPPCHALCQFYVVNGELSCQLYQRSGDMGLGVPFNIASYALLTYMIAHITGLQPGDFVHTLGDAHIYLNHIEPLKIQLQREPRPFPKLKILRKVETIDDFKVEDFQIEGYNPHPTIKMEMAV
Assay [5] addresses T1, Thymidylate synthase. In words: Thymidylate synthase inhibition in thymidine kinase deficient /TK cells after 2 hr treatment.
Assay [6] addresses T1, Thymidylate synthase. Put plainly: Thymidylate synthase inhibition in thymidine kinase deficient LM cells after 2 hr treatment. The assay is classed as cell-based.
For assay [7], the target named is T1, Thymidylate synthase. Put plainly: Thymidylate synthase inhibition in wild type LM cells after 2 hr treatment. The assay is classed as cell-based.
The subject of assay [8] is L1210. Put plainly: Growth inhibition in L1210 mouse leukemia cells after 8 h treatment. It counts as functional, cell-based. To be noted: L1210, 8 h.

Molecules are shown by their SMILES.

As for `CN(CCCCCl)P(=O)(OCc1ccc([N+](=O)[O-])o1)OC[C@H]1O[C@@H](n2cc(F)c(=O)[nH]c2=O)C[C@@H]1O` (some centres not stated), the 50% inhibitory concentration (IC50) with L1210 [1] turned out to be 116 nM; with L1210 [2], 7.2 nM; with L1210 [3], 2.3 nM; on Thymidylate synthase [4], 65 nM; against Thymidylate synthase [5], 1.9 nM; on Thymidylate synthase [6] it was 1060 nM. Further, the figures for the concentration for half-maximal inhibition (IC50) against Thymidylate synthase [7] and in the assay on L1210 [8] were 560 nM and 47 nM, respectively.

As to `O=c1[nH]c(=O)n([C@H]2C[C@H](O)[C@@H](CO)O2)cc1F` [FLOXURIDINE], the half-maximal inhibitory concentration (IC50) in the assay with L1210 [1] amounted to 45 nM; in the assay on L1210 [2], 4.1 nM; in the assay on L1210 [3] it was 0.64 nM; against Thymidylate synthase [4], 7.9 nM; on Thymidylate synthase [5], 20 nM; at Thymidylate synthase [6] it was 5400 nM. Also, the concentration for half-maximal inhibition (IC50) against Thymidylate synthase [7] amounted to 260 nM; in the assay on L1210 [8], 23 nM.

Turning to `CN(CCCCCl)P(=O)(OCC1=CC(=O)c2ccccc2C1=O)OC[C@H]1O[C@@H](n2cc(F)c(=O)[nH]c2=O)C[C@@H]1O` (some centres not stated), the IC50 with L1210 [1] worked out at 44 nM; in the assay on L1210 [2], 3.1 nM; with L1210 [3] it was 0.63 nM; against Thymidylate synthase [4] it was 10 nM; against Thymidylate synthase [5], 25 nM; on Thymidylate synthase [6], 5900 nM. For the same compound, the concentration for half-maximal inhibition (IC50) on Thymidylate synthase [7] worked out at 230 nM; in the assay with L1210 [8] it was 16 nM.

Turning to `CN(CCBr)P(=O)(OCc1ccc([N+](=O)[O-])o1)OC[C@H]1O[C@@H](n2cc(F)c(=O)[nH]c2=O)C[C@@H]1O` (some centres not stated), the IC50 worked out at 1030 nM in the assay on L1210 [1], 56 nM in the assay with L1210 [2], 16 nM in the assay on L1210 [3] and 347 nM in the assay with L1210 [8].

Regarding `O=c1[nH]cc(F)c(=O)[nH]1` [FLUOROURACIL], the IC50 with L1210 [1] was found to be 2500 nM; in the assay on L1210 [2], 360 nM; in the assay with L1210 [3], 200 nM; with L1210 [8], 1010 nM.

What is called IC50 is the concentration that inhibits the measured activity by half.
